Results as given in patent US8802711B2, “TRPV1 antagonists” (AbbVie Inc., priority 2011, dated 2014).

Key:
[1] = target: T1, human TRPV1 receptor (hTRPV1) (Homo sapiens (Human), UniProt Q8NER1); experiment: Capsaicin activation assay (FLIPR intracellular Ca2+); type: cell-based; details: Table 1; inhibition of capsaicin-induced intracellular Ca2+ increase, HEK293 cells expressing human TRPV1; read-out: hTRPV1 cap IC50
Experimental: Dulbecco's modified Eagle medium (D-MEM) (with 4.5 mg/mL glucose) and fetal bovine serum were obtained from Hyclone Laboratories, Inc. (Logan, Utah). Dulbecco's phosphate-buffered saline (D-PBS) (with 1 mg/mL glucose and 3.6 mg/l Na pyruvate, without phenol red), L-glutamine, hygromycin B, and Lipofectamine® were obtained from Life Technologies (Grand Island, N.Y.). G418 sulfate was obtained from Calbiochem-Novabiochem Corp. (San Diego, Calif.). Capsaicin (8-methyl-N-vanillyl-6-nonenamide) was obtained from Sigma-Aldrich, Co. (St. Louis, Mo.). Fluo-4 AM (N-[4-[6-[(acetyloxy)methoxy]-2,7-difluoro-3-oxo-3H-xanthen-9-yl]-2-[2-[2-[bis[2-[(acetyloxy)methoxy]-2-oxyethyl]amino]-5-methyl phenoxy]ethoxy]phenyl]-N-[2-[(acetyloxy)methoxy]-2-oxyethyl]-glycine, (acetyloxy)methyl ester) was purchased from Molecular Probes (Eugene, Oreg.). […]
The functional activity of compounds at the TRPV1 receptor was determined by measurement of intracellular Ca^2+ levels ([Ca^2+]i) using the Fluorescence Imaging Plate Reader (FLIPR)^TETRA®. All compounds were tested over a 12-point one-third-log concentration range. Compound stocks, 10 mM, were prepared in DMSO, and diluted serially across a 384-well plate using a Bravo BenchCel workstation (Agilent Technologies, Santa Clara, Calif.). A stock concentration of capsaicin (10 mM) was made in DMSO, and diluted in D-PBS to a final concentration of 200 nM (4×). On the day prior to the experiment, recombinant HEK293 cells that stably express human TRPV1 were removed from tissue culture flasks and plated in growth medium into black-walled clear-bottom 384-well Biocoat™ poly-D-lysine assay plates (BD Biosciences, Bedford, Mass.) using a Multidrop® dispenser (ThermoScientific, Waltham, Mass.). On the day of the experiment, growth medium was removed, and the no-wash FLIPR® Calcium-4 dye (λEX=470-495 nm, λEM=515-575 nm; Molecular Devices, Sunnyvale, Calif.) was added to each well using the Multidrop® dispenser. Cells were incubated for 90-120 minutes in the dark at room temperature. Test compounds were added to the cells 3 minutes prior to the addition of 200 nM capsaicin (4×), and the final assay volume was 80 μL. Fluorescence readings were made at 1 to 5 second intervals over the course of the experimental run. The peak increase in relative fluorescence units (minus baseline) was calculated, and expressed as a percentage of the 50 nM capsaicin (control) response.

[2] = target: T1, human TRPV1 receptor (hTRPV1); experiment: Acid activation assay (pH 5.0, FLIPR intracellular Ca2+); type: cell-based; details: Table 1; 37.5 μM antagonist, percentage of the maximal pH 5.0-induced response remaining; read-out: hTRPV1 H+ (max % remain)
Experimental: Dulbecco's modified Eagle's medium (DMEM) with 4.5 mg/mL D-glucose, fetal bovine serum, L-glutamine, and 2-morpholinoethanesulfonic acid (MES) were purchased from Sigma-Aldrich Co. (St. Louis, Mo.). Dulbecco's phosphate-buffered saline (DPBS) with Ca^2+, Mg^2+, and 1 mg/mL D-glucose (pH 7.4), Geneticin®, 0.25% trypsin-1 mM EDTA, and penicillin-streptomycin were purchased from Invitrogen Corp. (Carlsbad, Calif.). The FLIPR® Calcium 4 assay kit was purchased from Molecular Devices (Sunnyvale, Calif.).
The cDNAs for the human TRPV1 receptor (hTRPV1) were isolated by reverse transcriptase-polymerase chain reaction (RT-PCR) from human small intestine poly A+RNA supplied by Clontech (Palo Alto, Calif.) using primers designed surrounding the initiation and termination codons identical to the published sequences (Hayes et al. Pain 2000, 88, 205-215). The resulting cDNA PCR products were subcloned into pCIneo mammalian expression vector (Promega) and fully sequenced using fluorescent dye-terminator reagents (Prism, Perkin-Elmer Applied Biosystems Division) and a Perkin-Elmer Applied Biosystems Model 373 DNA sequencer or Model 310 genetic analyzer. Expression plasmids encoding the hTRPV1 cDNA were transfected individually into 1321N1 human astrocytoma cells using Lipofectamine. Forty-eight hours after transfection, the neomycin-resistant cells were selected with growth medium containing 800 μg/mL Geneticin (Gibco BRL). Surviving individual colonies were isolated and screened for TRPV1 receptor activity. Cells expressing recombinant homomeric TRPV1 receptors were maintained at 37° C. in DMEM containing 4 mM L-glutamine, 300 μg/mL G418 (Cal-biochem) and 10% fetal bovine serum under a humidified 5% CO2 atmosphere.
The functional activity of compounds at the TRPV1 receptor was determined by measurement of intracellular Ca^2+ levels ([Ca^2+]i) using the Fluorescence Imaging Plate Reader (FLIPR)^TETRA®. All compounds were tested over a 12-point one-half-log concentration range. Compound stocks, 10 mM, were prepared in DMSO, and diluted serially across a 384-well plate using a Bravo BenchCel workstation (Agilent Technologies, Santa Clara, Calif.).
On the day of the experiment growth medium was removed, and the no-wash FLIPR® Calcium-4 dye (λEX=470-495 nm, λEM=515-575 nm) was added to each well using the Multidrop® dispenser. Cells were incubated for 90-120 minutes in the dark at 25° C. Test compounds were dissolved in DMSO, and plates were prepared using an Agilent Bravo workstation (Agilent Technologies Inc., Santa Clara, Calif.). Compounds were added to the cells 3 minutes prior to the addition of a pH 5.0 solution. Reagents were delivered at a rate of 40 μL/sec, and the final assay volume was 80 μL. Acidic pH solutions were prepared by titration of DPBS/MES with 1 N HCl. The intensity of the fluorescence was captured and digitally transferred to an interfaced PC.

T1 sequence (Q8NER1 whole entry): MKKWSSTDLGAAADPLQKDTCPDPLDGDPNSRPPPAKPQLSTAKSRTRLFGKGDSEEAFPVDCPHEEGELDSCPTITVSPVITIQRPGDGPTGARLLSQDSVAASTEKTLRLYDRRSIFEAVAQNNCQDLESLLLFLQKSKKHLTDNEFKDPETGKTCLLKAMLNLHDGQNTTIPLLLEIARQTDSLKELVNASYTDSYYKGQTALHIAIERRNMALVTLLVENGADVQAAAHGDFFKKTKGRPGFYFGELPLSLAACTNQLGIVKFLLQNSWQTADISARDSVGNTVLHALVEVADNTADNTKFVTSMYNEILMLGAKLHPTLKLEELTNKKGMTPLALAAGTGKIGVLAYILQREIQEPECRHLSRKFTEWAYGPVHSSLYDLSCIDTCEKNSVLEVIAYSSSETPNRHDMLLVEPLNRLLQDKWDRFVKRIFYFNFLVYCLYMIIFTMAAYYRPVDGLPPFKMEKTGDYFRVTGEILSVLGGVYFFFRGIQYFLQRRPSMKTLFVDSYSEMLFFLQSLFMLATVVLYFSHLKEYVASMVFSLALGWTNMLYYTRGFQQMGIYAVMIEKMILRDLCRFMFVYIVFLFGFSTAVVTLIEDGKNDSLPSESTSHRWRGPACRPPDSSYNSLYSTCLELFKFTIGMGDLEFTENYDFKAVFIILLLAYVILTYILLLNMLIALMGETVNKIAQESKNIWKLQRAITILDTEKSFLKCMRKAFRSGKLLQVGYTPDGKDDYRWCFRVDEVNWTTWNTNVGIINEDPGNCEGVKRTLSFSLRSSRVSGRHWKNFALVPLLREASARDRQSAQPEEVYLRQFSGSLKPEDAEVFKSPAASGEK

Structure (SMILES) | IC50 [1] [µM] | remaining activity at 37.5 µM [2] [%]
O=C(Nc1cccc2[nH]ncc12)N[C@@H]1CCC[C@@H](c2ccc(C(F)(F)F)cc2)C1 [Example 31, 1-(1H-indazol-4-yl)-3-{(1R,3R)-3-[4-(trifluoromethyl)phenyl]cyclohexyl}urea] | 1.84 | 35
O=C(Nc1cccc2[nH]ncc12)N[C@H]1CCC[C@H](c2ccc(C(F)(F)F)cc2)C1 [Example 32, 1-(1H-indazol-4-yl)-3-{(1S,3S)-3-[4-(trifluoromethyl)phenyl]cyclohexyl}urea] | 0.795 | 32
O=C(Nc1cccc2[nH]ncc12)N[C@H]1CCC[C@@H](c2ccc(C(F)(F)F)cc2)C1 [Example 33, 1-(1H-indazol-4-yl)-3-{(1S,3R)-3-[4-(trifluoromethyl)phenyl]cyclohexyl}urea] | 8.64 | 68
O=C(Nc1cccc2[nH]ncc12)N[C@H]1CCC[C@H](c2ccccc2)C1 [Example 35, 1-(1H-indazol-4-yl)-3-[(1S,3S)-3-phenylcyclohexyl]urea] | 0.292 | 11
CC(C)(C)c1ccc(C2CCC(NC(=O)Nc3cccc4[nH]ncc34)C2)cc1 (stereo not drawn) [Example 37, 1-[3-(4-tert-butylphenyl)cyclopentyl]-3-(1H-indazol-4-yl)urea] | 0.427 | 6
O=C(Nc1cccc2[nH]ncc12)N[C@H]1CC[C@H](c2ccc(C(F)(F)F)cc2)C1 [Example 41, 1-(1H-indazol-4-yl)-3-{(1S,3S)-3-[4-(trifluoromethyl)phenyl]cyclopentyl}urea] | 0.311 | 1
O=C(Nc1cccc2[nH]ncc12)N[C@H]1C[C@@H](c2ccccc2)[C@@H](O)[C@H]1O [Example 52, 1-((1S,2S,3R,4S)-2,3-dihydroxy-4-phenylcyclopentyl)-3-(1H-indazol-4-yl)urea] | 22.4 | 67
O=C(Nc1cccc2[nH]ncc12)N[C@H]1C[C@@H](c2ccccc2)[C@H](O)[C@@H]1O [Example 53, 1-((1S,2R,3S,4S)-2,3-dihydroxy-4-phenylcyclopentyl)-3-(1H-indazol-4-yl)urea] | > 37.5 | 84
O=C(Nc1cccc2[nH]ncc12)N[C@@H]1C[C@H](c2ccccc2)[C@@H]2[C@H]1C2(F)F [Example 54, 1-((1R,2R,4S,5R)-6,6-difluoro-4-phenylbicyclo[3.1.0]hex-2-yl)-3-(1H-indazol-4-yl)urea] | 1.34 | 69
O=C(Nc1cccc2c1C[C@H](O)C2)N[C@H]1C[C@H](c2ccccc2)C1 [Example 59, 1-[(2R)-2-hydroxy-2,3-dihydro-1H-inden-4-yl]-3-(trans-3-phenylcyclobutyl)urea] | 0.435 | 79
O=C(Nc1cccc2c1C[C@H](O)C2)N[C@H]1C[C@@H](c2ccccc2)C1 [Example 60, 1-[(2R)-2-hydroxy-2,3-dihydro-1H-inden-4-yl]-3-(cis-3-phenylcyclobutyl)urea] | 0.331 | 72

The next lines start with the values.

IC50 [1] [µM] | remaining activity at 37.5 µM [2] [%] | Structure (SMILES)
0.056 | 8 | O=C(Nc1cccc2[nH]ncc12)N[C@@H]1CCC[C@H](c2ccccc2)C1 [Example 36, 1-(1H-indazol-4-yl)-3-[(1R,3S)-3-phenylcyclohexyl]urea]
0.078 | 1 | COc1ccc(C2CCC(NC(=O)Nc3cccc4[nH]ncc34)C2)cc1 (stereo not drawn) [Example 40, 1-(1H-indazol-4-yl)-3-[3-(4-methoxyphenyl)cyclopentyl]urea]
0.017 | 3 | O=C(Nc1cccc2[nH]ncc12)N[C@@H]1CC[C@H](c2ccc(C(F)(F)F)cc2)C1 [Example 42, 1-(1H-indazol-4-yl)-3-{(1R,3S)-3-[4-(trifluoromethyl)phenyl]cyclopentyl}urea]
0.221 | 55 | O=C(Nc1cccc2[nH]ncc12)N[C@H]1CC[C@@H](c2ccc(C(F)(F)F)cc2)C1 [Example 43, 1-(1H-indazol-4-yl)-3-{(1S,3R)-3-[4-(trifluoromethyl)phenyl]cyclopentyl}urea]
0.169 | 13 | O=C(Nc1cccc2[nH]ncc12)N[C@@H]1CC[C@@H](c2ccc(C(F)(F)F)cc2)C1 [Example 44, 1-(1H-indazol-4-yl)-3-{(1R,3R)-3-[4-(trifluoromethyl)phenyl]cyclopentyl}urea]
0.026 | 9 | O=C(Nc1cccc2[nH]ncc12)NC1CC[C@H](c2ccc(F)cc2)C1 (stereo partly drawn) [Example 45, 1-[(3S)-3-(4-fluorophenyl)cyclopentyl]-3-(1H-indazol-4-yl)urea]
0.087 | 7 | CSc1ccc([C@H]2CCC(NC(=O)Nc3cccc4[nH]ncc34)C2)cc1 (stereo partly drawn) [Example 46, 1-(1H-indazol-4-yl)-3-{(3S)-3-[4-(methylsulfanyl)phenyl]cyclopentyl}urea]
0.29 | 3 | CN(C)c1ccc([C@H]2CCC(NC(=O)Nc3cccc4[nH]ncc34)C2)cc1 (stereo partly drawn) [Example 47, 1-{(3S)-3-[4-(dimethylamino)phenyl]cyclopentyl}-3-(1H-indazol-4-yl)urea]
0.066 | 68 | O=C(Nc1cccc2[nH]ncc12)N[C@H]1CC[C@@H](C2CCCCC2)C1 [Example 49, 1-((1S,3R)-3-cyclohexylcyclopentyl)-3-(1H-indazol-4-yl)urea]
0.078 | 59 | Cn1c(=O)ccc2c(NC(=O)N[C@H]3CC[C@@H](c4ccccc4)C3)cccc21 [Example 50, 1-(1-methyl-2-oxo-1,2-dihydroquinolin-5-yl)-3-((1S,3R)-3-phenylcyclopentyl)urea]
0.037 | 11 | O=C(Nc1cccc2[nH]ncc12)N[C@@H]1C[C@H](c2ccccc2)[C@@H]2C[C@@H]21 [Example 55, 1-(1H-indazol-4-yl)-3-((1S,2R,4S,5S)-4-phenylbicyclo[3.1.0]hex-2-yl)urea]
0.014 | 10 | O=C(Nc1cccc2[nH]ncc12)N[C@H]1C[C@@H](c2ccccc2)C1 [Example 56, 1-(1H-indazol-4-yl)-3-(cis-3-phenylcyclobutyl)urea]
0.064 | 4 | O=C(Nc1cccc2[nH]ncc12)N[C@H]1C[C@H](c2ccccc2)C1 [Example 57, 1-(1H-indazol-4-yl)-3-(trans-3-phenylcyclobutyl)urea]
